Molecular target: T1, Human Polθ polymerase domain (aa1820-2590) (Homo sapiens, UniProt O75417)
T1 construct: Human Polθ polymerase domain (aa1820-2590) was expressed in E. coli; made in house; host or cells: E. coli
T1 sequence (O75417 1820-2590): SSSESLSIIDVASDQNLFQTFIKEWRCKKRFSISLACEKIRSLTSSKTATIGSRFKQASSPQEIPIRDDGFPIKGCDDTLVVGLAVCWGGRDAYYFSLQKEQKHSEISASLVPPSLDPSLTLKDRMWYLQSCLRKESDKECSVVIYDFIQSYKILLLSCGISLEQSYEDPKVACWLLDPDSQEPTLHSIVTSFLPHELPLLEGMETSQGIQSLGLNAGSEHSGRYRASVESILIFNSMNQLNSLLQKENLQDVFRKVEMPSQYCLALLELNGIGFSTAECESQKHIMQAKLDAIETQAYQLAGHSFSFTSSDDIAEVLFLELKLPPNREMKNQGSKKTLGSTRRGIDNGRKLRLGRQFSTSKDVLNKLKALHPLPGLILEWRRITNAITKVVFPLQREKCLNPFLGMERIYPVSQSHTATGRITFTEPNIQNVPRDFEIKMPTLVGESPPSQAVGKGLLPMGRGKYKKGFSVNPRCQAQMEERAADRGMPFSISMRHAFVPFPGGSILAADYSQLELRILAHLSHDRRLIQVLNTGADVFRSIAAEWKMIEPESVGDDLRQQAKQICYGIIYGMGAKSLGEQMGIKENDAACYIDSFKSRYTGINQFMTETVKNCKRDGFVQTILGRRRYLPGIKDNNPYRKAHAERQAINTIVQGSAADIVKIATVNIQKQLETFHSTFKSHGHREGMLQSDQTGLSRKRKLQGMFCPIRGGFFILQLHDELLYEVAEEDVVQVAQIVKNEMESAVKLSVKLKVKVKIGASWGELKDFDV
Assay: Polθ Polymerase Domain Kinact/KI Assay (PicoGreen)
Format: biochemical
Settings: 0.8 nM Polθ, 100 nM DNA substrate, kobs vs [I] fit for 2-step covalent inhibitor
Outline: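 Enzyme 0.8 nM, annealed DNA substrate 100 nM, […]; 25 mM Tris pH 7.5, 5% glycerol, 0.01% Triton X-100, 0.1 mg/ml BSA, 1 mM DTT, 1% DMSO. Quench with EDTA at timepoints to 60 min; PicoGreen read. kobs from time courses → Kinact/KI.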

SMILES | Kinact/Kl
C=CC(=O)N1CC2(CN(CCN3C[C@H]4CC(=O)N(c5cc(C(F)(F)F)cc(C)n5)[C@@H]4C(=O)N(C)c4cccc(Cl)c43)C[C@@H](C)N2)C1 [Example 13, (3aR,11aS)-5-(2-((R)-2-acryloyl-6-methyl-2,5,8-triazaspiro[3.5]nonan-8-yl)ethyl)-6-chloro-10-methyl-1-(6-methyl-4-(trifluoromethyl)pyridin-2-yl)-1,3a,4,5,10,11a-hexahydro-2H-benzo[b]pyrrolo[2,3-f][1,4]diazocine-2,11(3H)-dione] | 1.26e+06 M⁻¹ s⁻¹
C=CC(=O)N1CC2(CN(CCN3C[C@H]4CC(=O)N(c5cc(C(F)(F)F)cc(C)n5)[C@@H]4C(=O)N(C)c4cccc(C)c43)CC2(C)C#N)C1 (single isomer, unassigned) [Example 119a] | 4.57e+06 M⁻¹ s⁻¹
C=C(CN(C)C)C(=O)N1CC(CCN2C[C@H]3CC(=O)N(c4cc(C(F)(F)F)cc(C)n4)[C@@H]3C(=O)N(C)c3cccc(Cl)c32)C1 [Example 298, (3aR,11aS)-6-chloro-5-(2-(1-(2-((dimethylamino)methyl)acryloyl)azetidin-3-yl)ethyl)-10-methyl-1-(6-methyl-4-(trifluoromethyl)pyridin-2-yl)-1,3a,4,5,10,11a-hexahydro-2H-benzo[b]pyrrolo[2,3-f][1,4]diazocine-2,11(3H)-dione] | 3.64e+06 M⁻¹ s⁻¹
C=CC(=O)N1CC2(CN(CCN3C[C@H]4CC(=O)N(c5cc(C(F)(F)F)cc(C)n5)[C@@H]4C(=O)N(C)c4cccc(F)c43)CCO2)C1 [Example 4, (3aR,11aS)-5-(2-(2-acryloyl-5-oxa-2,8-diazaspiro[3.5]nonan-8-yl)ethyl)-6-fluoro-10-methyl-1-(6-methyl-4-(trifluoromethyl)pyridin-2-yl)-1,3a,4,5,10,11a-hexahydro-2H-benzo[b]pyrrolo[2,3-f][1,4]diazocine-2,11(3H)-dione] | 750000 M⁻¹ s⁻¹
C=CC(=O)N1Cc2cc(CN3C[C@H]4CC(=O)N(c5cc(C(F)(F)F)cc(C)n5)[C@@H]4C(=O)N(C)c4cccc(Cl)c43)ccc2C1CC#N (single isomer, unassigned) [Example 287b] | 1.19e+06 M⁻¹ s⁻¹
C=CC(=O)Nc1ccc(CN2C[C@H]3CC(=O)N(c4cc(C(F)(F)F)cc(C)n4)[C@@H]3C(=O)N(C)c3cccc(C)c32)cc1OC [Example 90, N-(4-(((3aR,11aS)-6,10-dimethyl-1-(6-methyl-4-(trifluoromethyl)pyridin-2-yl)-2,11-dioxo-1,2,3,3a,4,10,11,11a-octahydro-5H-benzo[b]pyrrolo[2,3-f][1,4]diazocin-5-yl)methyl)-2-methoxyphenyl)acrylamide] | 2.09e+06 M⁻¹ s⁻¹
C=C(CN(C)C)C(=O)N1Cc2ccc(CN3C[C@H]4CC(=O)N(c5cc(C(F)(F)F)cc(C)n5)[C@@H]4C(=O)N(C)c4cccc(Cl)c43)cc2C1 [Example 163, (3aR,11aS)-6-chloro-5-((2-(2-((dimethylamino)methyl)acryloyl)isoindolin-5-yl)methyl)-10-methyl-1-(6-methyl-4-(trifluoromethyl)pyridin-2-yl)-1,3a,4,5,10,11a-hexahydro-2H-benzo[b]pyrrolo[2,3-f][1,4]diazocine-2,11(3H)-dione] | 1.82e+06 M⁻¹ s⁻¹
C=CC(=O)N1CCC[C@H]1c1ccc(CN2C[C@H]3CC(=O)N(c4cc(C(F)(F)F)cc(C)n4)[C@@H]3C(=O)N(C)c3cccc(F)c32)cc1 (racemic) [Example 141b, (3aR,11aS)-5-(4-((S/R)-1-acryloylpyrrolidin-2-yl)benzyl)-6-fluoro-10-methyl-1-(6-methyl-4-(trifluoromethyl)pyridin-2-yl)-1,3a,4,5,10,11a-hexahydro-2H-benzo[b]pyrrolo[2,3-f][1,4]diazocine-2,11(3H)-dione] | 100000 M⁻¹ s⁻¹
C=CC(=O)N1Cc2ncc(CN3C[C@H]4CC(=O)N(c5cc(C(F)(F)F)cc(C)n5)[C@@H]4C(=O)N(C)c4cccc(Cl)c43)cc2[C@@H]1CC#N (racemic) [Example 291b, 2-((S/R)-6-acryloyl-3-(((3aR,11aS)-6-chloro-10-methyl-1-(6-methyl-4-(trifluoromethyl)pyridin-2-yl)-2,11-dioxo-1,2,3,3a,4,10,11,11a-octahydro-5H-benzo[b]pyrrolo[2,3-f][1,4]diazocin-5-yl)methyl)-6,7-dihydro-5H-pyrrolo[3,4-b]pyridin-5-yl)acetonitrile] | 1.48e+06 M⁻¹ s⁻¹
C=C(CN(C)C)C(=O)N1CC(CCCN2C[C@H]3CC(=O)N(c4cc(C(F)(F)F)cc(C)n4)[C@@H]3C(=O)N(C)c3cccc(Cl)c32)C1 [Example 299, (3aR,11aS)-6-chloro-5-(3-(1-(2-((dimethylamino)methyl)acryloyl)azetidin-3-yl)propyl)-10-methyl-1-(6-methyl-4-(trifluoromethyl)pyridin-2-yl)-1,3a,4,5,10,11a-hexahydro-2H-benzo[b]pyrrolo[2,3-f][1,4]diazocine-2,11(3H)-dione] | 1.99e+06 M⁻¹ s⁻¹
C=CC(=O)N1CC(Oc2cccc(N3C[C@H]4CC(=O)N(c5cc(C(F)(F)F)cc(C)n5)[C@@H]4C(=O)N(C)c4cccc(F)c43)n2)C1 [Example 57, (3aR,11aS)-5-(6-((1-acryloylazetidin-3-yl)oxy)pyridin-2-yl)-6-fluoro-10-methyl-1-(6-methyl-4-(trifluoromethyl)pyridin-2-yl)-1,3a,4,5,10,11a-hexahydro-2H-benzo[b]pyrrolo[2,3-f][1,4]diazocine-2,11(3H)-dione] | 34000 M⁻¹ s⁻¹
C=CC(=O)N1Cc2ccc(CN3C[C@H]4CC(=O)N(c5cc(C(F)(F)F)cc(C)n5)[C@@H]4C(=O)N(C)c4cccc(C)c43)cc2C1 [Example 313, (3aR,11aS)-5-((2-acryloylisoindolin-5-yl)methyl)-6,10-dimethyl-1-(6-meth-yl-4-(trifluorometh-yl)pyridin-2-yl)-1,3a,4,5,10,11a-hexahydro-2H-benzo [b]pyrrolo[2,3-f] [1,4]diazocine-2,11(3H)-dione] | 660000 M⁻¹ s⁻¹
C=CC(=O)N1Cc2ccc(CN3C[C@H]4CC(=O)N(c5cc(C(F)(F)F)cc(C)n5)[C@@H]4C(=O)N(C)c4cccc(Cl)c43)nc2C1CC#N (single isomer, unassigned) [Example 289a] | 1.26e+06 M⁻¹ s⁻¹
C=CC(=O)N1CCN(CCCN2C[C@H]3CC(=O)N(c4cc(C(F)(F)F)cc(C)n4)[C@@H]3C(=O)N(C)c3cccc(Cl)c32)CC1 [Example 266, (3aR,11aS)-5-(3-(4-acryloylpiperazin-1-yl)propyl)-6-chloro-10-methyl-1-(6-methyl-4-(trifluoromethyl)pyridin-2-yl)-1,3a,4,5,10,11a-hexahydro-2H-benzo[b]pyrrolo[2,3-f][1,4]diazocine-2,11(3H)-dione] | 590000 M⁻¹ s⁻¹
C=CC(=O)N1Cc2nc(CN3C[C@H]4CC(=O)N(c5cc(C(F)(F)F)cc(C)n5)[C@@H]4C(=O)N(C)c4cccc(C)c43)ccc2[C@H]1CC#N (racemic) [Example 319b, 2-((R/S)-6-acryloyl-2-(((3aR,11aS)-6,10-dimethyl-1-(6-meth-yl-4-(trifluorometh-yl)pyridin-2-yl)-2,11-dioxo-1,2,3,3a, 4,10,11,11a-octa-hydro-5H-benzo[b]pyrrolo[2,3-f][1,4]diazocin-5-yl)meth-yl)-6,7-dihydro-5H-pyrrolo[3,4-b]pyr-idin-5-yl)acetonitrile] | 1.66e+06 M⁻¹ s⁻¹
C=CC(=O)N1CCC(n2cnc(CN3C[C@H]4CC(=O)N(c5cc(C(F)(F)F)cc(C)n5)[C@@H]4C(=O)N(C)c4cccc(C)c43)n2)CC1 [Example 204, (3aR,11aS)-5-((1-(1-acryloylpiperidin-4-yl)-1H-1,2,4-triazol-3-yl)methyl)-6,10-dimethyl-1-(6-methyl-4-(trifluoromethyl)pyridin-2-yl)-1,3a,4,5,10,11a-hexahydro-2H-benzo[b]pyrrolo [2,3-f][1,4]diazocine-2,11(3H)-dione] | 980000 M⁻¹ s⁻¹
C=CC(=O)N1Cc2ncc(CN3C[C@H]4CC(=O)N(c5cc(C(F)(F)F)cc(C)n5)[C@@H]4C(=O)N(C)c4cccc(C)c43)cc2[C@H]1CC#N (racemic) [Example 320a, 2-((R/S)-6-acryloyl-3-(((3aR,11aS)-6,10-dimethyl-1-(6-meth-yl-4-(trifluorometh-yl)pyridin-2-yl)-2,11-dioxo-1,2,3,3a, 4,10,11,11a-octa-hydro-5H-benzo[b]pyrrolo[2,3-f][1,4]diazocin-5-yl)meth-yl)-6,7-dihydro-5H-pyrrolo[3,4-b]pyr-idin-5-yl)acetonitrile] | 1.37e+06 M⁻¹ s⁻¹
